Measurements reported in US11331319B2, “Combination treatment for neuropsychiatric disorders” (UNIVERSITY OF MASSACHUSETTS, priority 2017, dated 2022).
One block for each compound: values may come before it.

Tests used:
[1] = system: N-methyl-D-aspartate receptor (NMDAR); details: cited from earlier work; for Limitation: toxicity / therapeutic window / Limitation: efficacy: Table 3; for Finding: schizophrenia treatment
[2] = underlying neurologic disorders, co-administration of levodopa and sapropterin; cited from earlier work
[3] = cited from earlier work
[4] = system: NO metabolites (nitrites and nitrates); assay: Plasma levels of NO metabolites, Griess method (minocycline trial); type: in vivo, human; details: minocycline 200 mg per day, N = 27, fasting plasma, week 16 value minus baseline value, mean
From the text: (§1) After screening, each eligible subject underwent baseline assessments including the Scale for the Assessment of Negative Symptoms (SANS), the Positive and Negative Syndrome Scale (PANSS), and blood draw for lab tests. Andreasen N C., “Negative symptoms in schizophrenia: Definition and reliability” Arch. Gen. Psychiatry 39:784-788 (1982); and Kay et al., “The positive and negative syndrome scale (PANSS) for schizophrenia” Schizophr. Bull. 13:261-276 (1987). Subjects continued to take risperidone at the same dose throughout the study, and were randomized in a 1:1 ratio to receive either minocycline (200 mg per day) or placebo for 16 weeks. At week 16, baseline assessments were repeated.
(§2) Anthropometric measures included weight, height and body mass index (BMI). Blood samples were obtained 11 h (±1 h) after the completion of the last meal the night before. Subjects were allowed to drink water during the fasting period. Laboratory assays for plasma levels of TNFα, and IL-1β were performed using the enzyme-linked immunosorbent assay (ELISA) (Bender Med Systems GmbH Campus Vienna Biocenter 2 A-1030 Vienna, Austria, Europe). Plasma levels of NO metabolites (nitrites and nitrates) were measured using the Griess method (Cortas & Wakid 1990) (Nanjing Jiancheng Bioengineering Institute, China).
(§3) Statistical analysis was performed using SPSS (version 24.0, IBM Corp, Armonk, N.Y.). […]

TNFα = assay: Plasma TNFα by ELISA (minocycline trial); type: in vivo, human; details: minocycline 200 mg per day, N = 27; fasting plasma; week 16 value minus baseline value; mean; listed as Minocycline
From the text: as §1, §2, §3

[5] = system: patients with schizophrenia; assay: 16-week adjunctive minocycline clinical trial: SANS and PANSS; type: in vivo, human; details: minocycline 200 mg per day added to risperidone, N = 27, week 16 value minus baseline value, mean
From the text: Adult patients with schizophrenia were recruited from the 1st Affiliated Hospital of Kunming Medical University, and the Mental Health Center of Yunnan Province, China, between June 2010 and November 2011. The diagnosis of schizophrenia was made by trained clinical interviewers using the structured clinical interview for DSM-IV diagnosis (SCID). First et al., In: Structured Clinical interview for DSM-IV Axis I Disorders-Clinician Version (SCID-CV). Washington, D.C.: American Psychiatry Press. (1996). Other inclusion criteria included: (1) age 18 to 40 years old; (2) disease duration ≤5 years; (3) on stable dose of risperidone for at least 4 weeks prior to screening; (4) a stable living arrangement. Exclusion criteria were: (1) being allergic to minocycline or tetracycline; (2) a psychiatric diagnosis other than schizophrenia (determined by SCID); (3) serious, unstable medical conditions; (4) diagnosis of diabetes mellitus; (4) female patients who were planning to become pregnant, or were pregnant or lactating were also excluded from the study. The study was approved by the ethics committee of the 1st Affiliated Hospital of Kunming Medical University.
as §1
Statistical analysis was performed using SPSS (version 24.0, IBM Corp, Armonk, N.Y.). Descriptive statistics were performed to summarize demographic and clinical characteristics of the study sample. Group comparisons were performed using the independent t test for continuous variables, and the Fisher exact test or Chi-square test for categorical variables. Analysis of covariance (ANCOVA) was used to compare change scores from baseline to week 16 between the two treatment groups controlling for baseline scores and potential confounding variables. For all analyses, a p value less than 0.05 (2-tailed) was used for statistical significance.

[6] = Body mass index (minocycline trial); type: in vivo, human; details: minocycline 200 mg per day, N = 27; week 16 value minus baseline value; mean
From the text: as §1, §2, §3

IL-1β = assay: Plasma IL-1β by ELISA (minocycline trial); type: in vivo, human; details: minocycline 200 mg per day, N = 27; fasting plasma; week 16 value minus baseline value; mean; listed as Minocycline
From the text: as §1, §2, §3

[7] = over-the-counter nutrition supplement; cited from earlier work
[8] = system: young adults with uncomplicated type 1 diabetes; details: 7000 mg per day, one week; cited from earlier work

SMILES: N[C@H](CO)C(=O)O [D-Serine]
Limitation: toxicity / therapeutic window [1]: Nephrotoxicity
Finding [1]: Improvement in overall

SMILES: CCCCCNCC(N)=O [Milacemide]
Finding [1]: No significant clinical benefit

SMILES: C[C@H](O)[C@H](O)[C@H]1CNc2nc(N)[nH]c(=O)c2N1 [sapropterin]
Patients who experienced confusions, exacerbation of convulsions, over-stimulation, or irritability [2]: 3 patients

SMILES: N[C@@H]1CONC1=O [D-Cycloserine]
Limitation: efficacy [1]: Decrease in efficacy over time
Limitation: toxicity / therapeutic window [1]: Very narrow therapeutic window
Finding [1]: Inconsistent finding; improvement

BMI, week 16 change [6]: 1.98 kg/m^2
SMILES: CN(C)c1ccc(O)c2c1C[C@H]1C[C@H]3[C@H](N(C)C)C(O)=C(C(N)=O)C(=O)[C@@]3(O)C(O)=C1C2=O [minocycline]
Tolerability ([3]; in humans): well tolerated in humans
Oral bioavailability ([3]; in vivo, po): high oral bioavailability
Nitric oxide (plasma levels of NO metabolites), week 16 change [4]: -8.19 ± 18.09 µmol/L
Nitric oxide (plasma levels of NO metabolites), week 16 change ([4]; listed as Minocycline): -8.19 µmol/L
TNF-α plasma level, week 16 change (TNFα): -0.97 pg/mL
PANSS general psychopathology score, week 16 change [5]: −14.5
PANSS negative symptom score, week 16 change [5]: −10.8±5.9
PANSS positive symptom score, week 16 change [5]: −8.5
PANSS total score, week 16 change [5]: −32.9±17.1
SANS total score, week 16 change [5]: −31.2±25.5
PANSS negative symptom score, week 16 change ([5]; listed as Minocycline): −10.8
PANSS total score, week 16 change ([5]; listed as Minocycline): −32.9
SANS total score, week 16 change ([5]; listed as Minocycline): −31.2
IL-1β plasma level, week 16 change (IL-1β): -0.99 pg/mL

SMILES: CNCC(=O)O [Sarcosine]
Finding [1]: Improvment in overall

SMILES: NCC(=O)O [Glycine]
Limitation: efficacy [1]: High doses required to reach therapeutic effects
Finding [1]: Improvement in overall

SMILES: C[C@@H](N)C(=O)O [D-Alanine]
Finding [1]: Improvement in overall

SMILES: N=C(N)NCCC[C@H](N)C(=O)O [L-arginine]
Safety and tolerability [7]: considered safe and well tolerated in general
Effect of supplementation [8]: improved oxidative stress status, increased blood flow and exercise responses
